In one experiment the test system is U20S-IC6 cells. Kind of experiment: Lo-Q platform assay (CAG repeat expansion in a clonal cell line with tetracycline-regulated exon 1 HTT ~100 CAG / nanoluc). Conditions: 336 h, 2-week assay with tetracycline pulsing, read-out: Minimum effective concentration (MEC). It is filed as cell-based. The source says: The cell line that was used in the assay below was generated as follows:
The pcDNA™4/TO vector contains two tetracycline operator 2 (TetO2) sites within the human cytomegalovirus immediate-early (CMV) promoter for tetracycline regulated expression of your gene of interest (Yao et al., 1998). The TetO2 sequences serve as binding sites for four Tet repressor molecules (comprising two Tet repressor homodimers) and confer tetracycline-responsiveness to the gene of interest. In the absence of tetracycline, expression of your gene of interest is repressed by the binding of Tet repressor homodimers to the TetO2 sequences. Addition of tetracycline to the cells de-represses the hybrid CMV/TetO2 promoter in pcDNA™4/TO and allows expression of your gene of interest. The pcDNA™6/TR regulatory plasmid is designed for use with the T-REx™ System for tetracycline-regulated expression of the gene of interest in mammalian cells. (www.lifetechnologies.com).
The expression sequence comprises exon 1 huntingtin with ~100 pure CAG repeats, a P2A self-cleaving peptide and a nanoluc sequence followed by a polyA signal. Full plasmid sequence is indicated (Seq ID NO:3). The plasmid contains sequences for ampicillin (bacterial propagation) and zeocin (mammalian cell lines) resistance.
The U-2 OS cell line (purchased from LGC standards, ATCC) is derived from a moderately differentiated sarcoma from the tibia of an adolescent person. Karyotyping has shown that although there are a lot of chromosomal abnormalities the tumour suppressor genes p53 and pRb are still fully functional in the U2OS cell line.
Routine culture of the adherent cells in non-PDL plastic ware in a humidified 37°C incubator with 5% CO2. Cells were maintained in McCoy's 5A (modified) medium with GlutaMAX supplement (Life Technologies 3660-021) and tetracycline-free FBS (Clontech 631106). Maintenance medium for the clonal cell lines expressing Tet repressor and exon 1 HTT/nanoluc constructs were additionally supplemented with zeocin to 100 ug/ml and blasticidin to 1.25 ug/ml. Cells were passaged at 70-80% confluence once or twice a week, either to a split ratio or defined seeding density using DPBS and TrypLE express enzyme (1x, no phenol red, Life technologies 12604-039) was used to dissociate the cells. Cells were frozen with Cell Banker (AMSBIO 11891) or with medium plus 10% DMSO and stored in liquid nitrogen vapour phase.
Stable, clonal cell lines (e.g. 1C6) are leveraged either identify potential druggable targets, and to assess the effectiveness of therapeutic compounds against a Huntington's disease, by way of quantifying CAG repeats expansion rates.
• Place a vial of the cell line U20S-IC6 (1-2×10^6 cells/mL), produced as described above, in a water bath at 37°C for 30 s. Once thawed, quickly transfer the cells into a 15 mL falcon tube containing 9 mL of McCoys 5A media, supplemented with 10% Tet-free FBS. • Pellet the cells by centrifugation at 300 x g for 5 m and discard the supernatant. • Resuspend the cell pellet in 10 mL fresh media and transfer to a sterile T75 culture flask. • Inspect the culture after 24 h and maintain the cells below 80% confluency, typically passaging every 3-4 days.
The Lo-Q platform has been optimised to run as a 2-week assay, following the standard processes detailed in the schematic in Figure 1A.
• Cell seeding for Lo-Q platform assays should be initiated on Mondays (am) to ensure Tetracycline pulsing can be maintained every other day. • The Friday prior to initiating any Lo-Q platform assay ensure there are sufficient cells in culture to seed the required number of assay plates. If required, passage the cells, otherwise perform a media change to McCoys 5A, 10% Tet-free FBS, 1.25 µg/mL Blasticidin®, and 100 µg/mL Zeocin®. • On the Monday morning, aspirate the media from the required number of culture flasks containing U20S-IC6 cells and wash with 2 mL PBS. • Aspirate the PBS and add 2 mL 0.25% Trypsin EDTA. […]

The target in a further experiment is T1, MutSβ (Homo sapiens, UniProt P20585+P43246).
T1 construct: purchased AMRI
Kind of experiment: MutSβ ADP Glo Assay. The experiment is classed as biochemical. Conditions: 20nM MutSβ, 30nM CAG DNA, 25 µM ATP, 2 hours at room temperature. On the procedure:
Biological Example A - MutSβ Assay
• MutSβ (supplied by AMRI) stored at -70°C • ADP Glo Kinase Assay Kit (Promega: V9102) stored at -20°C • ATP (supplied within the ADP Glo Kit) stored at -20°C • 1M KCI (Sigma Aldrich: P9333) stored at 2-8°C • 1 M HEPES pH 7.5 (Gibco: M15630-080) stored at 2-8°C • 1M MgCl2 (Sigma Aldrich: M1028-100mL) stored at 2-8°C • Tween-20 (Sigma Aldrich: P1379) (10% solution) stored at 2-8°C • 500mM DTT (Sigma Aldrich: 10197777001) stored at -20°C • CAG loop DNA for MutSβ (made in house) stored at -20°C • MilliQ water stored at room temperature
• 1. Prepare the buffer fresh each day • 2. Take the enzyme from the freezer, thaw in room temperature water and centrifuge at 13,000 rpm for 10 minutes at 2-8C, then make up enzyme and ATP stocks • 3. Quality Control the multidrop head to a %CV of <2% • 4. Add 3µL of 33.34nM MutSβ and 50.01nM CAG looped DNA solution […] to each well in columns 1 and 3-23 of the plate • 5. Pre-incubate the MutSβ and buffer mix for 10 minutes with the compounds • 6. Wash the multidrop head through with MilliQ water (for at least 30 seconds) • 7. Add 3µL of MutSβ Assay buffer (without enzyme) to columns 2 and 24 for the vehicle controls • 8. Wash the multidrop head through with MilliQ water (for at least 30 seconds) • 9. Add 2µL of 62.5µM ATP to each well of the whole plate, then wash with MilliQ water (for a minimum of 30 seconds) • 10. Centrifuge plate for 1 minute at 1000 rpm • 11. Incubate for 2 hours at room temperature • 12. Add 5µL of ADP Glo reagent to each well of the whole plate and wash the multidrop head with MilliQ water (for a minimum of 30 seconds) • 13. Incubate for 40 minutes at room temperature (minimum requirement) • 14. Add 10µL of Kinase Detection Reagent to each well of the whole plate • 15. Wash the multidrop head with MilliQ water more than 1 minute and then dry • 16. Remove the head and put the cover back on for overnight storage • 17. Incubate for 30 minutes at room temperature (minimum requirement) • 18. Read on a microplate reader
(In ADP-Glo the light output rises with the ADP produced.)

Some results are limits rather than exact numbers.

T1 sequence (P43246 whole entry): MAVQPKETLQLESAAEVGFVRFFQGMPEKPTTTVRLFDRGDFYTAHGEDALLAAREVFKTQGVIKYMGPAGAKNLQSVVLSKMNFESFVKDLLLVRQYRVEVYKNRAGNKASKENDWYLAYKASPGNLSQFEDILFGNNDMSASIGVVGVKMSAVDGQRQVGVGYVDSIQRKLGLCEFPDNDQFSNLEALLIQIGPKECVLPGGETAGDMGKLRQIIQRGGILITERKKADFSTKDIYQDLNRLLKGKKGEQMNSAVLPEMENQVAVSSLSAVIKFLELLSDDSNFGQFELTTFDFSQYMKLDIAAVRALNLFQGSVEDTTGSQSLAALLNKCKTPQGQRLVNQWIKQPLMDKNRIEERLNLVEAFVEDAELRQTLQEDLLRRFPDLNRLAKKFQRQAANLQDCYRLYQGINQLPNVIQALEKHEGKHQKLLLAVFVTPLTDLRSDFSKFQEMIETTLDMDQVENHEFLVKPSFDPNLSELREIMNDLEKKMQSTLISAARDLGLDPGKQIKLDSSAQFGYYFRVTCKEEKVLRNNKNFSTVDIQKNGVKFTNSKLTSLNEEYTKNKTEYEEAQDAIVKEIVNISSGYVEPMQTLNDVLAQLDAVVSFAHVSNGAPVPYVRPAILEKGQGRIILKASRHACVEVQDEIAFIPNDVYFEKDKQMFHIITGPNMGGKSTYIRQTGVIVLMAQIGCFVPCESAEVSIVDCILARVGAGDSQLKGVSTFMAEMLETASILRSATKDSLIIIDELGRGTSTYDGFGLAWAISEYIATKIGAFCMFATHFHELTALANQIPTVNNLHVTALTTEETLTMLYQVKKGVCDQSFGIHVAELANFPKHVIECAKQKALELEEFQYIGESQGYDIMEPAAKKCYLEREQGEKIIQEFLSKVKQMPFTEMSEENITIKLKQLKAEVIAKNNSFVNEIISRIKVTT
T1 sequence (P20585 whole entry): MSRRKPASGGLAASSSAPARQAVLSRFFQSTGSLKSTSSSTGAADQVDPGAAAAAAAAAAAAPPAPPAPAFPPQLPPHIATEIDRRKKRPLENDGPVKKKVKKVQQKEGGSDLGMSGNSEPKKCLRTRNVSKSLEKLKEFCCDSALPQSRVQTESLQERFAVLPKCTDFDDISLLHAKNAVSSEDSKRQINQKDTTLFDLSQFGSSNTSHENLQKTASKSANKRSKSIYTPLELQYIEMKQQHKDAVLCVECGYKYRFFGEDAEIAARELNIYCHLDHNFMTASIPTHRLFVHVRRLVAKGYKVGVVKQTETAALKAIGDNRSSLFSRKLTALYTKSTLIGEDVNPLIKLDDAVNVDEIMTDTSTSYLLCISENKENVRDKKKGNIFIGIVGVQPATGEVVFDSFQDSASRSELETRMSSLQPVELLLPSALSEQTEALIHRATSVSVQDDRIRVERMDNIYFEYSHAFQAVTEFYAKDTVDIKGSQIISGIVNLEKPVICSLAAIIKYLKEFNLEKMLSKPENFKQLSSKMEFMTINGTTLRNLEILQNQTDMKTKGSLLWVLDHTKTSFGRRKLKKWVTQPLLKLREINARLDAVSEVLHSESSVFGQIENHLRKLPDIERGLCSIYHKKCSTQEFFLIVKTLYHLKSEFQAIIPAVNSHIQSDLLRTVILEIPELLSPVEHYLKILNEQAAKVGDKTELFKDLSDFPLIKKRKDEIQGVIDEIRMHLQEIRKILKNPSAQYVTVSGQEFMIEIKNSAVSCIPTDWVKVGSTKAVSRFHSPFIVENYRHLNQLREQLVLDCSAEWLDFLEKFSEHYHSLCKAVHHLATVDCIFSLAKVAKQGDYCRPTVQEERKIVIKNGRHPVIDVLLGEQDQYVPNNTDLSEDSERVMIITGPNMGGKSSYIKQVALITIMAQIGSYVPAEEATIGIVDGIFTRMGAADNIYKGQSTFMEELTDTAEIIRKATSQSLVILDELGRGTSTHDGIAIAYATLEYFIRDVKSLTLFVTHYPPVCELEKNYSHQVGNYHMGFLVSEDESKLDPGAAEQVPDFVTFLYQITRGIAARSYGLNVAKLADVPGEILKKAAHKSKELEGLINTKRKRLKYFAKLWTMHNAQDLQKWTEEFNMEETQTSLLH

Turning to `CCNS(=O)(=O)OCC(=O)Nc1nc(C)c(Cc2ccc(C)cc2)s1` [Example 15, 2-((4-methyl-5-(4-methylbenzyl)thiazol-2-yl)amino)-2-oxoethyl ethylsulfamate], the minimal effective concentration in the experiment on U20S-IC6 cells was 0.5 to 1 µM. On MutSβ, the IC50 fell in the range of 1 to 10 µM. For the compound `CCN(C)S(=O)(=O)OCC(=O)Nc1nc(C)c(Cc2ccc(C)cc2)s1` [Example 39, 2-((4-methyl-5-(4-methylbenzyl)thiazol-2-yl)amino)-2-oxoethyl ethyl(methyl)sulfamate], the minimal effective concentration in the experiment with U20S-IC6 cells lay within 1 to 5 µM. The half-maximal inhibitory concentration (IC50) against MutSβ was in the range of 1 to 10 µM. On to `CNS(=O)(=O)OCC(=O)Nc1nc(C)c(Cc2cccc(Br)c2)s1` [Example 10, 2-((5-(3-bromobenzyl)-4-methylthiazol-2-yl)amino)-2-oxoethyl methylsulfamate], for which the minimal effective concentration in the experiment on U20S-IC6 cells was 0.1 to 0.5 µM. This compound gave a concentration for half-maximal inhibition (IC50) against MutSβ of no more than 0.5 µM. In the case of `CNS(=O)(=O)OCC(=O)Nc1nc(C)c(Cc2ccc(Cl)c(Cl)c2)s1` [Example 12, 2-((5-(3,4-dichlorobenzyl)-4-methylthiazol-2-yl)amino)-2-oxoethyl methylsulfamate], the minimal effective concentration in the experiment with U20S-IC6 cells lay in the range of 0.5 to 1 µM. Moreover, the half-maximal inhibitory concentration (IC50) at MutSβ was no more than 0.5 µM. For `CNS(=O)(=O)OCC(=O)Nc1nc(C)c(Cc2cccc(F)c2)s1` [Example 27, 2-((5-(3-fluorobenzyl)-4-methylthiazol-2-yl)amino)-2-oxoethyl methylsulfamate], the minimal effective concentration in the experiment on U20S-IC6 cells fell in the range of 0.1 to 0.5 µM. For the same compound, the IC50 against MutSβ is 1 to 10 µM. Regarding “2-((4-methyl-5-(4-methylbenzyl)thiazol-2-yl)amino)-2-oxoethyl isobutylsulfamate [Example 17]”, the IC50 against MutSβ lay within 10 to 50 µM. Regarding `CCNS(=O)(=O)OCC(=O)Nc1nc(C)c(Cc2cccc(Cl)c2)s1` [Example 46, 2-((5-(3-chlorobenzyl)-4-methylthiazol-2-yl)amino)-2-oxoethyl ethylsulfamate], the minimal effective concentration with U20S-IC6 cells is no more than 0.1 µM. Moreover, the IC50 against MutSβ was no more than 0.5 µM. On to `CNS(=O)(=O)OCC(=O)Nc1nc(C)c(C(C)(C)c2cccc(Cl)c2)s1` [Example 52, 2-((5-(2-(3-chlorophenyl)propan-2-yl)-4-methylthiazol-2-yl)amino)-2-oxoethyl methylsulfamate], for which the half-inhibitory concentration (IC50) against MutSβ lay in the range of 10 to 50 µM. `CNS(=O)(=O)OCC(=O)Nc1nc(C=O)c(Cc2cccc(Cl)c2)s1` [Example 56, 2-((5-(3-chlorobenzyl)-4-formylthiazol-2-yl)amino)-2-oxoethyl methylsulfamate] showed a half-maximal inhibitory concentration (IC50) at MutSβ of 1 to 10 µM.

The compound `CNS(=O)(=O)OCC(=O)Nc1nc(CO)c(Cc2ccc(C)cc2)s1` [Example 51, 2-((4-(hydroxymethyl)-5-(4-methylbenzyl)thiazol-2-yl)amino)-2-oxoethyl methylsulfamate] yielded an IC50 against MutSβ of 10 to 50 µM.

In the case of `CNS(=O)(=O)OCC(=O)Nc1nc(C)c(Cc2ccc(F)c(Cl)c2)s1` [Example 7, 2-((5-(3-chloro-4-fluorobenzyl)-4-methylthiazol-2-yl)amino)-2-oxoethyl methylsulfamate], at MutSβ, the IC50 is no more than 0.5 µM. On MutSβ, `CNS(=O)(=O)OCC(=O)Nc1nc(C)c(Cc2cccc(C)c2)s1` [Example 24, 2-((4-methyl-5-(3-methylbenzyl)thiazol-2-yl)amino)-2-oxoethyl methylsulfamate] had an IC50 of 1 to 10 µM.

`CNC(=O)OCc1nc(NC(=O)COS(=O)(=O)NC)sc1Cc1cccc(Cl)c1` [Example 60, 2-((5-(3-chlorobenzyl)-4-(((methylcarbamoyl)oxy)methyl)thiazol-2-yl)amino)-2-oxoethyl methylsulfamate] gave an IC50 at MutSβ of 1 to 10 µM.

The compound `Cc1ccc(Cc2sc(NC(=O)COS(=O)(=O)N3CCOCC3)nc2C)cc1` [Example 9, 2-((4-methyl-5-(4-methylbenzyl)thiazol-2-yl)amino)-2-oxoethyl morpholine-4-sulfonate] returned a half-maximal inhibitory concentration (IC50) on MutSβ of 0.5 to 1 µM. Same read-out and setting: then `Cc1ccc(Cc2sc(NC(=O)COS(=O)(=O)N3CC(F)C3)nc2C)cc1` [Example 21, 2-((4-methyl-5-(4-methylbenzyl)thiazol-2-yl)amino)-2-oxoethyl 3-fluoroazetidine-1-sulfonate], with 0.5 to 1 µM.

Take `CNS(=O)(=O)OCC(=O)Nc1nc(C)c(Cc2cc(Cl)ccc2F)s1` [Example 55, 2-((5-(5-chloro-2-fluorobenzyl)-4-methylthiazol-2-yl)amino)-2-oxoethyl methylsulfamate]: the concentration for half-maximal inhibition (IC50) at MutSβ was 1 to 10 µM.

As for `Cc1ccc(Cc2sc(NC(=O)COS(=O)(=O)NC3CC3)nc2C)cc1` [Example 6, 2-((4-methyl-5-(4-methylbenzyl)thiazol-2-yl)amino)-2-oxoethyl cyclopropylsulfamate], at MutSβ, the IC50 lay in the range of 1 to 10 µM. On the same count and under the same terms, then `CCc1nc(NC(=O)COS(=O)(=O)NC)sc1Cc1ccc(C)cc1` [Example 18, 2-((4-ethyl-5-(4-methylbenzyl)thiazol-2-yl)amino)-2-oxoethyl methylsulfamate], with 1 to 10 µM. For the compound `CNS(=O)(=O)OCC(=O)Nc1nc(C)c(Cc2ccc3ccccc3c2)s1` [Example 5, 2-((4-methyl-5-(naphthalen-2-ylmethyl)thiazol-2-yl)amino)-2-oxoethyl methylsulfamate], the IC50 at MutSβ lay in the range of 1 to 10 µM. Take `CNS(=O)(=O)OCC(=O)Nc1nc(CN2CCOCC2)c(Cc2cccc(Cl)c2)s1` [Example 58, 2-((5-(3-chlorobenzyl)-4-(morpholinomethyl)thiazol-2-yl)amino)-2-oxoethyl methylsulfamate]: at MutSβ, the IC50 is 10 to 50 µM. Take `CNS(=O)(=O)OCC(=O)Nc1nc(C)c(Cc2ccccc2Cl)s1` [Example 16, 2-((5-(2-chlorobenzyl)-4-methylthiazol-2-yl)amino)-2-oxoethyl methylsulfamate]: the 50% inhibitory concentration (IC50) against MutSβ is 1 to 10 µM. In turn, `Cc1ccc(Cc2sc(NC(=O)COS(=O)(=O)NCc3ccccc3)nc2C)cc1` [Example 45, 2-((4-methyl-5-(4-methylbenzyl)thiazol-2-yl)amino)-2-oxoethyl benzylsulfamate] came in with a half-inhibitory concentration (IC50) against MutSβ of 1 to 10 µM.

For orientation: IC50 means the midpoint of a concentration-inhibition curve. A low value points to greater potency.
